Source: patent US11480576B2, “Conjugated oligomer-based macrocycles for live cell imaging” (THE FLORIDA INTERNATIONAL UNIVERSITY BOARD OF TRUSTEES, priority 2019, dated 2022)

Test: Photophysical properties of PEMCs (UV-vis absorption, fluorescence, QY)
Type: physicochemical
Method: Chemicals, including solvents, were purchased from Fisher Scientific and used as received. Deuterated solvents were purchased from Cambridge Isotope Laboratories (Cambridge, Mass.). All chemicals and solvents were purchased and used without further purification. Nuclear magnetic resonance (NMR) spectra were recorded on a 400 MHz Avance Bruker NMR spectrometer. ^1H and ^13C NMR chemical shifts are given in ppm relative to Si(CH3)4. The mass spectrometric data were conducted on a Bruker Solarix FT-ICRMS. Data for crystal structure was obtained on a Bruker D8 Quest CMOS diffractometer. The crystal was kept at T=296(2) K during data collection. Using APEX3, the structure was solved with the ShelXT 2014/5 structure solution program, using the intrinsic phasing method. The model was refined with version 2016/6 of ShelXL using full matrix least squares on F^2 minimization, using the Olex2 GUI. Analytical thin layer chromatography (TLC) was performed on TLC Silica gel 60 F254. […] UV-vis spectra were recorded on a Varian Cary 50 Bio spectrophotometer. Fluorescence spectra were obtained using a FluoroLog-3 Spectrofluorometer (Jobin Yvon/Horiba). 9,10-diphenylanthracene (QY=1.0) in cyclohexane was used as a fluorescence standard for QY determination. Fourier transform infrared (FTIR) spectra were recorded on a PerkinElmer Spectrum 100 FTIR Spectrometer. […]

Extinction coefficient (ε): 62700 M⁻¹ cm⁻¹
Quantum Yield (QY) (9,10-Diphenylanthracene (QY = 1.0) in cyclohexane as fluorescence standard): 31%
SMILES: COc1cc(C#Cc2ccc(C=O)cc2)c(OC)cc1C#Cc1ccc(C=O)cc1 [1a, 4,4′-((2,5-dimethoxy-1,4-phenylene)bis(ethyne-2,1-diyl))dibenzaldehyde]
